Reference: patent publication US9926299B2, “Inhibitors of bruton's tyrosine kinase” (Centaurus BioPharma Co., Ltd., priority 2012, dated 2018)

How the values were obtained:
BTK kinase = BTK kinase (Homo sapiens (Human), UniProt Q06187); assay: Btk kinase enzymatic assay (HTRF); assay type: biochemical; conditions: ATP at Km
Procedure: Btk kinase activity was determined using a Homogeneous Time-Resolved Fluorescence (HTRF) methodology (Cisbio). […] The mixture was centrifuged and incubated for 5 min. […] For each compound, enzyme activity was measured at various concentrations of compound, and IC50s were obtained by GraFit Software 6.0 (Erithacus Software).

Ramos cells = assay: BCR-induced calcium flux fluorescence-based assay in Ramos cells; conditions: Ramos cells stimulated with goat anti-human IgM antibody; read-out: Ramos Cell Ca Flux IC50
Procedure: Calcium flux fluorescence-based assays were performed using Fluo-4 Direct™ Calcium Assay Kits (purchased from Invitrogen) in a FlexStation III (purchased from Molecular Devices) according to manufacturer instructions. In brief, actively growing Romas cells in RPM1-1640 medium (purchased from Invitrogen) supplemented with 10% FBS (purchased from Hyclone) were washed and re-plated in low serum medium at approximately 1×10^5 cells per 45 μL per well in a 96-well plate (purchased from Corning), then added 45 μL of dye (purchased from Invitrogen) and incubated at 37 degree for 1 hour. Compounds to be assayed were dissolved and 3-fold serially diluted in DMSO and then diluted by 100 times in low serum medium. Then 10 μL of the diluted mixture were added to the above 96-well plate (final DMSO concentration was 0.1%) and incubated at 37 degree in 5% CO2 incubator for 0.5 hour. The compound-treated cells were stimulated with a goat anti-human IgM antibody (10 μg/ml; purchased from SouthernBiotech) and read in the FlexStation III using a λEx=494 nM and […] for 90 seconds. The relative fluorescence unit (RFU) and the IC50 were recorded and analyzed using a GraphPad Prism 5 (GraphPad Software).

Sequence of BTK kinase (Q06187 whole entry): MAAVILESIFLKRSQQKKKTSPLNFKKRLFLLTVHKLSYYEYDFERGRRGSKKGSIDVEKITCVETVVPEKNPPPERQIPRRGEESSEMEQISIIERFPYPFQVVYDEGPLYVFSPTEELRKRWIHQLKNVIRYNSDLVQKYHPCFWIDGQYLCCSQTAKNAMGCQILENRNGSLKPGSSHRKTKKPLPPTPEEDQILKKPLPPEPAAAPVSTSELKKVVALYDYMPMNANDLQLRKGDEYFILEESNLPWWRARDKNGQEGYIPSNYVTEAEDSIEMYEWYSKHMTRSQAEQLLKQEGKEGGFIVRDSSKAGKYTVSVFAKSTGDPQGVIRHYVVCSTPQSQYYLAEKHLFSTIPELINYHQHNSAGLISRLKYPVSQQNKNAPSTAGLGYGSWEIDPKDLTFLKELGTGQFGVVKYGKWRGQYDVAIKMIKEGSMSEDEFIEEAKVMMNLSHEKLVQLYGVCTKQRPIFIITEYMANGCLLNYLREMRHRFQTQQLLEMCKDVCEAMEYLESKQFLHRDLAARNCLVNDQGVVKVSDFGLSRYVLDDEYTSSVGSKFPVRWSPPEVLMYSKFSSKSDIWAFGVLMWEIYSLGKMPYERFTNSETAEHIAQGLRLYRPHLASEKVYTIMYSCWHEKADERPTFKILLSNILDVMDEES

IC50 (BTK kinase)	IC50 (Ramos cells)	Compound
< 0.1 µM	< 0.1 µM	C=CC(=O)N1CC[C@@H](n2nc(-c3ccc(Oc4ccc(C)c([N+](=O)[O-])c4)cc3)c(C(N)=O)c2N)C1 [Example 48, (R)-1-(1-acryloylpyrrolidin-3-yl)-5-amino-3-(4-(4-methyl-3-nitrophenoxy)phenyl)-1H-pyrazole-4-carboxamide]
< 0.1 µM	< 0.1 µM	C=CC(=O)N1CC[C@@H](n2nc(-c3ccc(Oc4cccc([N+](=O)[O-])c4)c(C)c3)c(C(N)=O)c2N)C1 [Example 49, (R)-1-(1-acryloylpyrrolidin-3-yl)-5-amino-3-(3-methyl-4-(3-nitrophenoxy)phenyl)-1H-pyrazole-4-carboxamide]
